{"source": "patent US20170128518A1", "about": "“METHODS AND MATERIALS FOR IDENTIFYING AND TREATING MAMMALS RESISTANT TO PROTEASOME INHIBITOR TREATMENTS” (Mayo Foundation for Medical Education and Research, priority 2014, published 2017)", "key": {"[1]": {"biological_target": "T1, proteasome b1 subunit (caspase-like activity) (Homo sapiens, UniProt P28072)", "T1 construct": "Cells were lysed at 4×10^6 cells/ml in proteasomal activity assay buffer; endogenous in cells; host or cells: BCWM.1 and BCWM.1/BR (lysates)", "T1 sequence (P28072 whole entry)": "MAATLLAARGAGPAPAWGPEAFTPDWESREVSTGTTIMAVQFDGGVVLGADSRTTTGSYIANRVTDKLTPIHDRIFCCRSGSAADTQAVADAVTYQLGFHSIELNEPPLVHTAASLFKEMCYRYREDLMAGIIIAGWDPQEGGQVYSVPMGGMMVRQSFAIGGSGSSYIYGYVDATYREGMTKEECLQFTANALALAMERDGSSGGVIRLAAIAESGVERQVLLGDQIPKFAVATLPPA", "test": "Proteasomal activity assay, caspase-like (LLE-AMC), WM cells", "assay_type": "biochemical", "details": "10 nM; BCWM.1 and BCWM.1/BR shown", "description": "FIGS. 17A-17D are a series of graphs plotting the effects of bortezomib (10 nM), carfilzomib (10 nM) and b-AP15 (10 nM) on caspase-like and trypsin-like proteasomal activities, as assessed in three WT and three BR WM cell lines in vitro using the fluorogenic substrates LLE-AMC (caspase-like activity) and LRR-AMC (trypsin-like activity). Reactions were incubated at 37° C. for 1 hour and the fluorescence was measured at 360/460 and expressed as relative fluorescence units (RFU), using BioTek synergy HT plate reader. Data from two representative cell lines (BCWM.1 and its BR subclone) are shown.\nCells were lysed at 4×10^6 cells/ml in proteasomal activity assay buffer [assay buffer; 25 mmol/1 HEPES buffer, pH7.5 containing 0.5 mmol/1 EDTA, 0.05% Nonidet P-40, 0.01% sodium dodecyl sulfate (SDS)] and immediately used in the assay. Enzyme reactions were performed in 96-well plates with 100 μl of final volume containing […] fluorogenic peptide substrates. The substrates used were LLVY-AMC for chymotrypsin like activity, LLE-AMC for caspase-like activity and LRR-AMC for trypsin-like activity. Reactions were incubated at 37° C. for 1 hour and fluorescence was measured at 360/460 using a BioTek synergy HT plate reader (BioTek, Winooski, Vt.)."}, "WM cells": {"test_system": "WM cells", "test": "Immunoblot analysis of WM cells", "assay_type": "cell-based, human", "description": "Total protein extracts were made using radioimmunoprecipitation assay lysis buffer (50 mmol/1 Tris containing 150 mmol/1 NaCl, 0.1% SDS, 1% TritonX-100, 1% sodium deoxycholate, pH 7.2) with 0.2% protease and phosphatase inhibitor cocktail (Sigma, St. Louis, Mo.) on ice for 40 minutes, vortexing for 5 seconds every 10 minutes. Following centrifugation at 18,400 g for 20 minutes, the supernatant was collected and used for Western blot analyses. Protein content in the extracts was measured by bicinchoninic acid protein assay reagent. Aliquots of 20 μg of total protein were boiled in Laemmli sample buffer, loaded onto 10% SDS-PAGE gels, and transferred onto a nitrocellulose membrane. Membranes were blocked for 1 hour in TBS/Tween 20 [TTBS] containing 1% nonfat dried milk and 1% BSA. Incubation with primary antibodies was done overnight at 4° C., followed by washing 3× with TTBS and incubation for 1 hour with HRP-conjugated secondary antibody. The blots were developed using chemiluminescence (Thermo Scientific, Rockford, Ill.)."}, "[2]": {"test_system": "WM cell lines (WT and BR)", "test": "Annexin-V apoptosis assay, WM cell lines", "assay_type": "cell-based, human", "details": "0.64 μmol/l, 12 hours", "description": "FIGS. 12A-12D are a series of graphs and Western blots showing b-AP15 induction of tumor-specific apoptosis in WM cell lines and primary patient-derived WM cells. FIG. 12A is a graph plotting cell death as a percentage of control cell death for all available WM cell lines (n=6, WT and BR derivatives) after treatment with the indicated concentrations of b-AP15, followed by staining with annexin-V and propidium iodide and then flow cytometry to examine apoptosis. […] Each experiment was conducted a minimum of three times with control cells (no drug treatment) showing a viability ([…] and propidium iodide-negative population) of >85%. Following treatment, the percentage of cells affected by b-AP15 was calculated by normalizing data from treated cells relative to the control (untreated) cells. […]\nApoptosis was measured using the Annexin V binding assay kit from BD Biosciences according to the manufacturer's instructions. […] Fluorescein isothiocycanate (FITC)-labelled Annexin V (5 μl) and propidium iodide (10μ were added to each sample and incubated in the dark for 15 minutes at room temperature. The cells were subsequently analyzed by flow cytometry using BD Accuri, the C6 flow cytometer and its software. Data from 10,000 events per sample were collected and analyzed."}}, "note": "Entries after “also recorded” stand apart in the source; their conditions may differ."}
{"compound": "C=CC(=O)N1C/C(=C\\c2ccc([N+](=O)[O-])cc2)C(=O)/C(=C/c2ccc([N+](=O)[O-])cc2)C1", "note": "[b-AP15]", "values": [{"measurement": "caspase-like proteasomal activity", "setting": "[1]", "value": "no change in caspase-like activity"}, {"measurement": "BCL2 protein", "setting": "WM cells", "value": "No change"}, {"measurement": "p-EIF2a expression", "setting": "WM cells", "value": "did not appear to change"}, {"measurement": "phosphorylated MAPK14 (p38) protein", "setting": "WM cells; 6-hour treatment", "value": "significant increase"}, {"measurement": "RELA nuclear protein levels", "setting": "WM cells; 6 hours, BCWM.1 shown", "value": "marked reduction; also recorded: markedly reduced"}, {"measurement": "MYC total and nuclear expression", "setting": "WM cells; BCWM.1", "value": "reduced total and nuclear expression"}, {"measurement": "EIF2AK3 (PERK) levels", "setting": "WM cells; BR models", "value": "decreased EIF2AK3 levels"}, {"measurement": "USP14 and UCHL5 protein expression", "setting": "WM cells; WM cell lines (WT and BR), 0.5 and 1 μmol/l", "value": "no observable shift"}, {"measurement": "PARP1 cleavage", "setting": "WM cells; WM cell lines and primary WM tumor cells", "value": "confirming execution of apoptosis"}, {"measurement": "TP53 protein", "setting": "WM cells; WT and BR WM cells", "value": "marginal increase"}, {"measurement": "HSPA1A protein", "setting": "WM cells; all cell lines", "value": "further induced"}, {"measurement": "ERN1a, XBP1u and XBP1s protein", "setting": "WM cells; all models tested", "value": "significantly induced"}, {"measurement": "total ubiquitinated cellular protein content", "setting": "WM cells; dose-dependent", "value": "increasing amounts of high molecular weight polyubiquitinated conjugates"}, {"measurement": "USP14 and UCHL5 protein expression", "setting": "WM cells; primary CD19+/CD138+ WM cells, 0.5 μmol/l", "value": "did not change"}, {"measurement": "p-MAPK3/MAPK1 (ERK1/2)", "setting": "WM cells; wild type cell lines", "value": "increase"}, {"measurement": "WM cells experiencing apoptosis", "setting": "[2]", "value": "approximately 50%"}]}
